Key:
[1] = molecular target: JAK2 (Homo sapiens, UniProt O60674); experiment: Phosphorylation of STAT3 by JAK2; assay type: biochemical
Text: Suzhou Zelgen Biopharmaceuticals Co., Ltd. Jaktinib Hydrochloride Tablets Chemical Drug Class 1 New Drug has been completed. The ongoing toxicity tests include a long-term 39-week toxicity test in Beagle dogs by oral administration, a reproductive toxicity test in rats during the teratogenic sensitive period, and a reproductive toxicity test in rabbits during the teratogenic sensitive period.
Preclinical Pharmacodynamic Study
Study on the in vitro Pharmacodynamic Effects of ZG0163 at the […]
In this study, the effects of ZG0163 was similar to those of positive control compounds, ZG0164 and ZG0178.
Study on the in vitro Pharmacodynamic Effects of ZG0163 at the Cellular Level (Ba/F3-EpoR-JAK2V617F cells)
JAK2V617F cell line, the compound ZG0163 was able to induce apoptosis of pathogenic cells and eliminate abnormal cell proliferation by inhibiting the JAK-STAT signaling pathway, thus achieving treatment efficacy in myeloproliferative neoplasms. […]
cell line, manifested as significant inhibition of phosphorylation of JAK2 and its downstream signaling proteins ERK and STAT5. The effects of ZG0163 was similar to those of positive control compounds, ZG0164 and ZG0178.
EpoR-JAK2V617F, which was similar to those of positive control compounds, ZG0164

[2] = PK, single intragastric dose; assay type: in vivo, beagles
Method: Overall 2.0 (1.0-2.0) 0.593 ± 0.194 2.96 ± 1.07 3.03 ± 1.09 3.99 ± 0.40 2.24 ± 0.88 30.5 Male 2.0 (2.0-8.0) 0.765 ± 0.105 5.76 ± 3.51 5.82 ± 3.48 5.28 ± 2.11 2.31 ± 0.89 […] 61 Male 8.0 (4.0-12.0) 1.49 ± 0.33 16.6 ± 8.2 16.7 ± 8.2 7.73 ± 2.48 3.72 ± 0.79 Female 2.0 (2.0-6.0) 1.73 ± 0.75 17.4 ± 8.9 17.4 ± 8.9 6.33 ± 1.62 2.54 ± 1.06 […] (multiple […] Pharmacokinetics of single dose intravenous administration in beagles. After intravenous administration of 12.2 mg ZG0128 (the average weight of the beagles was about 10 kg, so the dose given equals to 1.22 mg/kg ZG0128), ZG0163 […] 3.49 L/kg. […] Pharmacokinetics of single-dose intragastric administration. […] mg/ZG0128). […] The plasma […] There were large individual differences in plasma exposure AUC0-t in dogs. The pharmacokinetic differences between genders could not be determined. […] increased proportionally with the increasing dosage. The average Tmax of metabolite ZG0245 was 2.0 h.

[3] = PK, 7-day intragastric dosing; assay type: in vivo, beagles; conditions: 122 mg/animal once daily
Method: Suzhou Zelgen Biopharmaceuticals Co., Ltd. Jaktinib Hydrochloride Tablets Chemical Drug Class 1 New Drug higher than ZG0163, which was higher than the ratio of intravenous administration. […]
produced through first-pass metabolism. Within the dosage range of 61-244 mg, the AUC0-t of ZG0245 increased proportionally with the increasing dosage.
Pharmacokinetics of 7 consecutive days of multi-dose intragastric […]
After 7 consecutive days of intragastric administration (2 tablets once daily, equal […]
respectively, when compared to single-dose administration. The Cmax and AUC0-t of metabolite ZG0245 were 1.33 and 0.95 times compared to single-dose administration.
Thus, there was no significant accumulation of ZG0163 and metabolite ZG0245 after 7 days of consecutive administration. […]
intragastric administration of 61 mg ZG0163.
ZG0128, and the exposure was 93.0% of that of the medium dosage group (122 […]
of that of the medium dosage group (122 mg/animal).
Identification of Metabolites in Rat Samples
Using UPLC-UV/Q-TOF MS, potential metabolites were identified in rat plasma, urine, feces and bile, after single intragastric administration of 30.5 mg/kg ZG0128, as well as metabolites in mice plasma after single intragastric administration of 61 mg/kg ZG0128. […]

[4] = rat, in vivo, po
Text: Chemical Drug Class 1 New Drug
The study consisted of 4 groups, including the control group and dose groups of […]

[5] = Bone marrow micronucleus test; assay type: in vivo, NIH mice; conditions: 122, 244, 488 mg/kg oral gavage, 4 days
Text: Suzhou Zelgen Biopharmaceuticals Co., Ltd. Jaktinib Hydrochloride Tablets Chemical Drug Class 1 New Drug chromosomal structural aberrations in CHL cells. Therefore, the results of the chromosomal aberration test were negative.
Mouse Bone Marrow Micronucleus Test
A mouse bone marrow micronucleus test of ZG0128 has been performed. After multiple doses of ZG0128 are given to mice via oral gavage, the incidence of micronucleated polychromatic erythrocytes in the bone marrow is observed to estimate the damage to chromosomal integrity in bone marrow cells and subsequent abnormality of chromosome segregation, so as to determine the presence of genotoxicity. The results […]
once a day for 4 consecutive days, neither damage to the chromosomal integrity in bone marrow cells nor abnormal chromosome segregation was observed. Therefore, the results of the micronucleus test were negative.
A Toxicity Test on Fertility and Early Embryo Development in Wistar Rats Administered ZG0128 by Oral Gavage
A toxicity test on the fertility and early embryo development in Wistar rats given ZG0128 by oral gavage was completed. In this test, female and male rats were given a continuous dose of ZG0128 prior to mating until embryo implantation to observe the toxicity or interference of ZG0128 on the fertility and early embryo development in […]
groups of 18, 36, and 72 mg/kg of ZG0128. […]

Sequence of JAK2 (O60674 whole entry): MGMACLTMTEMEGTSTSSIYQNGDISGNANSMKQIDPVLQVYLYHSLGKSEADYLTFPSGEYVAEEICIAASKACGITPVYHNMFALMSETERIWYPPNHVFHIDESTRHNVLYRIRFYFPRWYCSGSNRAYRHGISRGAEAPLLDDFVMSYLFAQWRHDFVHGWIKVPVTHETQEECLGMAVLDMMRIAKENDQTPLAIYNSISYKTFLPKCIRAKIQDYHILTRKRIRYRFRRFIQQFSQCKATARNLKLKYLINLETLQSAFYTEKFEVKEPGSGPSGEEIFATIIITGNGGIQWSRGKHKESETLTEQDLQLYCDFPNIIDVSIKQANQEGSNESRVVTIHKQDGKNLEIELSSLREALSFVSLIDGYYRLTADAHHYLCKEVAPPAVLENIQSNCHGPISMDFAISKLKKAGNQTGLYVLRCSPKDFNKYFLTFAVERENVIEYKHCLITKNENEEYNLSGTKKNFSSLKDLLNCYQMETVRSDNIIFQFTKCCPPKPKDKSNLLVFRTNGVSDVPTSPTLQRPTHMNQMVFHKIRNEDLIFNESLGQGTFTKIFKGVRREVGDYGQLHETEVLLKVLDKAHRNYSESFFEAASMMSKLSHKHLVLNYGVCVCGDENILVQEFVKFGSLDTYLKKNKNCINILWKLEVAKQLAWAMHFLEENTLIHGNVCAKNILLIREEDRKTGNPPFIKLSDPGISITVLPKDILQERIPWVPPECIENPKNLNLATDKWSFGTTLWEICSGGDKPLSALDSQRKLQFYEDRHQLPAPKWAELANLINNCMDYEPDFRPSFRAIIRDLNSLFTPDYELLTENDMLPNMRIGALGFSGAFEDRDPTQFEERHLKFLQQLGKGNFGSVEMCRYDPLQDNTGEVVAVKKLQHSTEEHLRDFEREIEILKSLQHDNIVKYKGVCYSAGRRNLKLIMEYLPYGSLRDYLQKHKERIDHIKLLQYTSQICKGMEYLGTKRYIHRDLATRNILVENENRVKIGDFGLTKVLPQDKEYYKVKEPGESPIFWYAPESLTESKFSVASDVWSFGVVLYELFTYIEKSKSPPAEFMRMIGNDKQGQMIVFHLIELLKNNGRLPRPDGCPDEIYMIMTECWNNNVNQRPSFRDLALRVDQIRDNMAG

| Compound | IC50 [1] [nM] | AUC0-t (mean) ([2]; 61 mg ZG0128) [ng·h/mL] | Cmax ([2]; 61 mg ZG0128) [ng/mL] | absolute bioavailability ([2]; 61 mg, by AUC0-t) [%] | AUC0-t (mean) ([2]; 122 mg ZG0128) [ng·h/mL] | Cmax ([2]; 122 mg ZG0128) [ng/mL] | AUC0-t (mean) ([2]; 244 mg ZG0128) [ng·h/mL] | Cmax ([2]; 244 mg ZG0128) [ng/mL] | average Tmax ([2]; 1, 2 and 4 tablets (61, 122, 244 mg ZG0128)) [h] | average t1/2, range over doses ([2]; 61–244 mg) [h] | exposure as % of the medium dosage group (122 mg/animal) ([2]; intragastric 122 mg ZG0128) [%] | Tmax ([2]; intragastric 122 mg ZG0128 (compared with medium dosage tablet group)) [h] | day on which steady state was reached [3] [days] | maximum tolerated dose (MTD) [4] [mg/kg] | micronucleus test result [5] |
| --- | --- | --- | --- | --- | --- | --- | --- | --- | --- | --- | --- | --- | --- | --- | --- |
| Jaktinib | ~100 | 459 | 156 | 27.2 | 948 | 266 | 1728 | 444 | 2.0 | 1.31 to 2.49 | 93.0 | 1.50 | 5 | – | – |
| Cl.Cl.O.[2H]C1([2H])COCC([2H])([2H])N1c1ccc(Nc2nccc(-c3ccc(C(=O)NCC#N)cc3)n2)cc1 [ZG0128, Jaktinib Dihydrochloride Monohydrate] | – | – | – | – | – | – | – | – | – | – | – | – | – | 732 | negative |
